Results on 17 molecules are retold here after patent publication US11072584B2, “Carbon monoxide releasing norbornenone compounds” (OTAGO INNOVATION LIMITED, priority 2015, dated 2021).

One series relates to MDA-MB-231. The series is described as follows: crystal violet cell viability assay. In kind it is cell-based. Particulars: for EC50: Homo sapiens; for cellular toxicity (in words): MDA-MB-231 cells.
A further series has as its system MDCK cells. The series is described as follows: crystal violet cell adhesion (CVCA) cell toxicity assay. Particulars: Canis lupus familiaris, MDCK.
The next series is described as follows: Solubility in water. In kind it is physicochemical. The note with it: for solubility (in words): water or physiological buffers; for solubility: water, 21° C.
Series [1] deals with isolated rat aortic rings. In words: isolated rat aortic ring vasorelaxation. More on the design: species or system Lewis rats. The note with it: rings pre-contracted with phenylephrine; 37° C. As for the experimental part:
Transverse ring sections of aorta were isolated from male Lewis rats ([…], n=5-6 per group) under halothane anaesthesia and suspended under 2 g tension in an organ bath containing 10 mL of oxygenated (95% O2/5% CO2) Krebs Henseleit (KH) buffer containing 118 mM NaCl, 4.7 mM KCl, 1.2 mM KH2PO4, 1.2 mM MgSO4.7H2O, 22 mM NaHCO3, 11 mM glucose, 0.03 mM K^+ EDTA, and 2.5 mM CaCl2 as previously described.^43 Indomethacin (10 μM) was present in the buffer to exclude endogenous prostaglandins as potential modulators of vascular tone. Relaxation responses to oCOm-19 or oCOm-21 ([…]) were assessed using individual dosing in tissues pre-contracted with phenylephrine (0.1 μM). All results were subsequently expressed as a percentage of the maximal phenylephrine-induced contraction. Following repeat wash steps with Krebs Henseleit buffer, smooth muscle function and viability was confirmed by repeating the contractile response to phenylephrine. Aortic responses to individual EC50 concentrations of either CO donor in phenylephrine vasoconstricted rings were repeated separately, in the presence of the CO-chelator, myoglobin (5 μM) and the selective, irreversible inhibitor of sGC 1H-(1,2,4)oxadiazolo[4,3-a]quinoxalin-1-one, (ODQ, 10 μM), as previously described.^44

Series [2] can be described thus: carboxyhaemoglobin in rats exposed to CO gas (earlier unpublished studies). In kind it is in vivo. Particulars: 20 ppm CO gas.
A further series has as its system horse heart myoglobin. In words: carboxymyoglobin spectrophotometric assay (CO binding to myoglobin). In kind it is biochemical. Particulars: 25 to 400 μM; 5 to 90 minutes. As for the experimental part: CO released from oCOm-19 and oCOm-21 was measured using an established carboxymyoglobin spectrophotometric assay,^39 adapted to a 96 well plate format to enable the simultaneous correction at all absorbance wavelengths arising from any potential interference from the donor compounds.^40 Freshly prepared horse heart myoglobin (66 μM) in a PBS solution (pH 7.4) was reduced with 10% w/v sodium dithionite and added to a 96 well plate. […] Absorption spectra (λ 500-600 nm) were run at ten minute intervals using a Spectramax 96-well spectrophotometer (Molecular Devices, Crawley, UK) at 37° C. CO gas saturated PBS (714 μM), was employed as a positive control.

[3] abbreviates: * (MDA-MB-231), inactive CO depleted analogues, 37° C., read-out: EC50 (μM), Inactive Compound.
[4] abbreviates: read-out: EC50 (μM), Active Compound.
The mark [5] stands for this setting: *MDA-MB-231 cells, 1 hr exposure at 37° C., viability after 23 hrs, read-out: EC50 (μM), Active Compound.

Molecules are shown by their SMILES. In brackets after ≈: the same amount, converted by molar mass. Where a name gives a salt, the structure may show the parent alone. Read-outs that look alike come from different tables or passages of the source.

Procedure for MDA-MB-231: The loss of cell adhesion for anchorage-dependent cell lines, such as MDCK, represents a surrogate marker of imminent cellular demise which can be measured by the crystal violet cell adhesion (CVCA) assay.^42 MDCK cells were grown in DMEM supplemented with 4% donor calf serum and 1% antibiotic (Gibco Life Technologies, Auckland NZ) and plated at 1×10^6 cells/mL in 24 well plates. CO donor compounds, CO expired compounds (left in solution for over 48 hours) or non CO releasing, debromo derivatives were dissolved in either ultrapure water or for non-water soluble compounds, in DMSO and diluted to 20-100 μM (to a final concentration of 1% DMSO where appropriate). Cells were exposed to CO donor compounds or the respective vehicle control solution for 1 hour at 37° C. prior to washing and incubating for a further 23 hours in fresh media. Cells were fixed in 96% ethanol and stained in 0.05% crystal violet solution in 20% ethanol, prior to washing and solubilising (24 hours) in 2 mL 0.1% acetic acid in 50% ethanol. Sample solutes (100 μL) from each well were transferred into a 96 well plate and absorbance measured at 585 nm. Cell survival was reported as a percentage of the value obtained for cells exposed to vehicle only and used to plot a concentration-response curve for each compound from which an EC50 value was obtained.
Toxicity was reported as EC50 values calculated from percentage cell survival using Origin Pro8 software (OriginLab, MA, USA).

The EC50 is the concentration giving half of the maximal effect. Consider `Cc1c2c(c(C)c(-c3ccccc3)c1-c1ccccc1)C(=O)N(CCC(=O)ON1C(=O)CCC1=O)C2=O` [BP-17, 2,5-Dioxo-1-pyrrolidinyl 4,7-dimethyl-5,6-diphenyl-1H-isoindole-1,3(2H)-dione-2-propanoate], for which the concentration giving a half-maximal response (EC50) with MDA-MB-231 (setting [3]) was determined as 159 µM. As to `CC12C(=O)C(C)(C(c3ccccc3)=C1c1ccccc1)C1(Br)C(=O)N(CCCC[C@H](N)C(=O)O)C(=O)C21` (stereo partly drawn) [oCOm-28, (2S)-2-Amino-6-(3a-bromo-4,7-dimethyl-1,3,8-trioxo-5,6-diphenyl-1,3,3a,4,7,7a-hexahydro-2H-4,7-methanoisoindol-2-yl)hexanoic Acid Trifluoroacetic Acid Salt], in the series with MDCK cells (setting [4]), the EC50 was greater than 100 µM. Moreover, the “solubility (in words)” value in “Solubility in water” is recorded as “water soluble”. Consider `CC12C(=O)C(C)(C(c3ccccc3)=C1c1ccccc1)C1(Br)C(=O)N(CCC(=O)ON3C(=O)CCC3=O)C(=O)C21` (centres unmarked) [oCOm-17, 2,5-Dioxopyrrolidin-1-yl 3-(3a-bromo-4,7-dimethyl-1,3,8-trioxo-5,6-diphenyl-1,3,3a,4,7,7a-hexahydro-2H-4,7-methanoisoindol-2-yl)propanoate], for which the “solubility (in words)” value in “Solubility in water” is listed as “lack of solubility in water”. The EC50 in the series with MDA-MB-231 (setting [5]) came out at 216 µM. Also, the “cellular toxicity (in words)” value in the series with MDA-MB-231 is “least toxic”. For orientation: melting point means the temperature, or range, at which the solid turns liquid. `Cc1c2c(c(C)c(-c3ccccc3)c1-c1ccccc1)C(=O)N(c1ccccc1)C2=O` [BP-1, 4,7-Dimethyl-2,5,6-triphenyl-1H-isoindole-1,3(2H)-dione] registered a melting point of 260 °C. The EC50 in the series with MDA-MB-231 (setting [3]) is greater than 200 µM. Regarding `Cc1c2c(c(C)c(-c3ccccc3)c1-c1ccccc1)C(=O)N(CCC(=O)NCCN)C2=O.Cl` [BP-19, N-(2-aminoethyl)-3-(4,7-dimethyl-1,3-dioxo-5,6-diphenylisoindolin-2-yl)propanamide Hydrochloride], in the series with MDCK cells (read-out: EC50 (μM), Inactive Compound), the EC50 is greater than 100 µM. In series [1], the “vasorelaxant response (in words)” value is given as “no vasorelaxant effect”.

Consider `CC12C(=O)C(C)(C(c3ccccc3)=C1c1ccccc1)C1(Br)C(=O)N(c3ccccc3)C(=O)C21` (centres unmarked) [oCOm-1, 3a-Bromo-3a,4,7,7a-tetrahydro-4,7-dimethyl-2,5,6-triphenyl-4,7-methano-1H-isoindole-1,3,8(2H)-trione], for which the EC50 in the series with MDA-MB-231 (setting [5]) is 4.6 µM. Besides, the “cellular toxicity (in words)” value with MDA-MB-231 was “greatest toxicity”. Take `COCCOCCOCCOc1ccc(C2=C(c3ccc(OCCOCCOCCOC)cc3)C3(C)C(=O)C2(C)C2C(=O)N(c4ccc(OCCOCCOCCOC)cc4)C(=O)C23Br)cc1` (centres unmarked) [oCOm-15, 3a-Bromo-3a,4,7,7a-tetrahydro-4,7-dimethyl-2,5,6-tri-(4-(2-(2-(2-methoxyethoxy)ethoxy)ethoxy)phenyl)-4,7-methano-1H-isoindole-1,3,8(2H)-trione]: in the series with MDA-MB-231 (setting [5]), the EC50 was 183 µM. By solubility is commonly meant the dissolved amount per volume that the medium holds. Read a low solubility as little dissolved substance. Consider `CC12C(=O)C(C)(C(c3ccccc3)=C1c1ccccc1)C1(Br)C(=O)N(CCC(=O)NC(CO)(CO)CO)C(=O)C21` (centres unmarked) [oCOm-24, N-(2-Hydroxy-1,1-bis(hydroxymethyl)ethyl)-3-(3a-bromo-4,7-dimethyl-1,3,8-trioxo-5,6-diphenyl-3a,4,7,7a-tetrahydro-1H-4,7-methanoisoindol-2(2H)-yl)propanamide], for which the half-maximal effective concentration (EC50) in the series with MDCK cells (setting [4]) was greater than 100 µM. Moreover, in “Solubility in water”, the “solubility (in words)” value is “decreased solubility” and the concentration in solution (solubility) came to 5000 µg/mL (≈ 8.18 mM).

With `COCCOCCOCCOc1ccc(-c2c(C)c3c(c(C)c2-c2ccc(OCCOCCOCCOC)cc2)C(=O)N(c2ccc(OCCOCCOCCOC)cc2)C3=O)cc1` [BP-15, 2,5,6-Tri-(4-(2-(2-(2-methoxyethoxy)ethoxy)ethoxy)phenyl)-4,7-dimethyl-1H-isoindole-1,3(2H)-dione], in the series on MDA-MB-231 (setting [3]), the EC50 was greater than 200 µM. Turning to `CCCOC(=O)[C@@H](N)CCCCN1C(=O)C2C3(C)C(=O)C(C)(C(c4ccccc4)=C3c3ccccc3)C2(Br)C1=O` (stereo partly drawn) [oCOm-34, nPropyl (2S)-2-amino-6-(3a-bromo-4,7-dimethyl-1,3,8-trioxo-5,6-diphenyl-1,3,3a,4,7,7a-hexahydro-2H-4,7-methanoisoindol-2-yl)hexanoate Trifluoroacetic Acid Salt], in the series on MDCK cells (setting [4]), the EC50 is greater than 100 µM. The “solubility (in words)” value in the series “Solubility in water” is “water soluble”. Turning to `CC12C(=O)C(C)(C(c3ccccc3)=C1c1ccccc1)C1(Br)C(=O)N(Cc3cn(CCOC4OC(CO)C(O)C(O)C4O)nn3)C(=O)C21` [oCOm-49, 3a-Bromo-3a,4,7,7a-tetrahydro-4,7-dimethyl-2-[[1-(2-α-D-mannopyranosyloxy)ethyl]-1H-1,2,3-triazol-4yl]methyl-5,6-diphenyl-4,7-methano-1H-isoindole-1,3,8(2H)-trione], the EC50 with MDCK cells (setting [4]) is greater than 200 µM. Besides, in the series “Solubility in water”, the “solubility (in words)” value was “decreased water solubility” and the solubility worked out at 900 µg/mL (≈ 1.24 mM). `COCCOCCOCCOc1ccc(N2C(=O)c3c(C)c(-c4ccccc4)c(-c4ccccc4)c(C)c3C2=O)cc1` [BP-12, 2-(4-(2-(2-(2-Methoxyethoxy)ethoxy)ethoxy)phenyl)-4,7-dimethyl-5,6-diphenyl-1H-isoindole-1,3(2H)-dione] registered a melting point of 127 to 129 °C. In addition, in the series on MDA-MB-231 (setting [3]), the EC50 was determined as 196 µM. As for `CC12C(=O)C(C)(C(c3ccccc3)=C1c1ccccc1)C1(Br)C(=O)N(c3ccc(O)cc3)C(=O)C21` (centres unmarked) [oCOm-8, 3a-Bromo-3a,4,7,7a-tetrahydro-4,7-dimethyl-2-(4-hydroxyphenyl)-5,6-diphenyl-4,7-methano-1H-isoindole-1,3,8(2H)-trione], in the series with MDA-MB-231 (setting [5]), the EC50 came to 23.1 µM.

For the molecule `CCOC(=O)[C@@H](N)CCCCN1C(=O)C2C3(C)C(=O)C(C)(C(c4ccccc4)=C3c3ccccc3)C2(Br)C1=O` (stereo partly drawn) [oCOm-32, Ethyl (2S)-2-amino-6-(3a-bromo-4,7-dimethyl-1,3,8-trioxo-5,6-diphenyl-1,3,3a,4,7,7a-hexahydro-2H-4,7-methanoisoindol-2-yl)hexanoate Trifluoroacetic Acid Salt], in the series on MDCK cells (setting [4]), the concentration for a half-maximal effect (EC50) was greater than 100 µM. Moreover, the “solubility (in words)” value in the series “Solubility in water” is “water soluble”. As to `[C-]#[O+]` [CO gas, carbon monoxide], the carboxyhaemoglobin level in series [2] (2 day duration) is 1.1±0.25%; in series [2] (7 day duration), 2±0.75%. For the molecule `COC(=O)[C@@H](N)CCCN1C(=O)C2C3(C)C(=O)C(C)(C(c4ccccc4)=C3c3ccccc3)C2(Br)C1=O` (stereo partly drawn) [oCOm-40, Methyl (2S) 2-amino-5-(3a-bromo-4,7-dimethyl-1,3,8-trioxo-5,6-diphenyl-1,3,3a,4,7,7a-hexahydro-2H-4,7-methanoisoindol-2-yl)-pentanoate Trifluoroacetic Acid Salt], in the series with MDCK cells (setting [4]), the EC50 was greater than 100 µM. The “solubility (in words)” value in the series “Solubility in water” is “water soluble”. With `[C-]#[O+].[C-]#[O+].[C-]#[O+].[C-]#[O+].[C-]#[O+].[C-]#[O+].[Cl][Ru][Cl].[Cl][Ru][Cl]` [CORM2, Tri-carbonyldichlororuthenium (II) dimer, reference compound], the “carbonmonoxymyoglobin formation (in words)” value in the series on horse heart myoglobin was “characteristic shift in the absorbance maxima of myoglobin”.
